Patent US6274715A, “Tricyclic erythromycin derivatives” (priority 1997, dated 2001)
≈ marks a conversion by molar mass, not a printed value.

Legend:
Assay type in all cases: cell-based
[1] = test system: STREPTOCOCCUS PYOGENES EES61; assay: In vitro antibacterial activity, MIC, BHI agar dilution; settings: S. pyogenes EES61, unit assumed
[2] = test system: STREPTOCOCCUS PYOGENES 930; assay: as above; settings: S. pyogenes 930, unit assumed
[3] = test system: STAPHYLOCOCCUS AUREUS 1775; assay: as above; settings: S. aureus 1775, unit assumed
[4] = test system: STAPHYLOCOCCUS EPIDERMIDIS 3519; settings: S. epidermidis 3519; BHI agar; unit assumed
[5] = test system: STAPHYLOCOCCUS AUREUS A5177; assay: In vitro antibacterial activity, MIC, BHI agar dilution; settings: S. aureus A5177, unit assumed
[6] = test system: STAPHYLOCOCCUS AUREUS CMX 642A; assay: as above; settings: S. aureus CMX 642A, unit assumed
ESCHERICHIA COLI H560 = assay: as above; settings: E. coli H560, unit assumed
[7] = test system: STREPTOCOCCUS BOVIS A-5169; assay: as above; settings: S. bovis A-5169, unit assumed
[8] = test system: KLEBSIELLA PNEUMONIAE ATCC 8045; assay: as above; settings: K. pneumoniae ATCC 8045, unit assumed
[9] = test system: PSEUDOMONAS AERUGINOSA K799/WT; assay: as above; settings: P. aeruginosa K799/WT, unit assumed
[10] = test system: PSEUDOMONAS AERUGINOSA BMH10; assay: as above; settings: P. aeruginosa BMH10, unit assumed
ESCHERICHIA COLI DC-2 = assay: as above; settings: E. coli DC-2, unit assumed
[11] = test system: STAPHYLOCOCCUS AUREUS ATCC 6538P; assay: as above; settings: S. aureus ATCC 6538P, 35-37° C., 20 to 24 hours, unit assumed
[12] = test system: PSEUDOMONAS AERUGINOSA 5007; assay: as above; settings: P. aeruginosa 5007, unit assumed
[13] = test system: STREPTOCOCCUS PYOGENES PIU 2548; assay: as above; settings: S. pyogenes PIU 2548, unit assumed
ESCHERICHIA COLI KNK 437 = settings: E. coli KNK 437; BHI agar; unit assumed
[14] = test system: MYCOBACTERIUM SMEGMATIS ATCC 114; assay: In vitro antibacterial activity, MIC, BHI agar dilution; settings: M. smegmatis ATCC 114, unit assumed
[15] = test system: STAPHYLOCOCCUS AUREUS CMX 553; assay: as above; settings: S. aureus CMX 553, unit assumed
ESCHERICHIA COLI SS = assay: as above; settings: E. coli SS, unit assumed
[16] = test system: STAPHYLOCOCCUS AUREUS A-5278; assay: as above; settings: S. aureus A-5278, unit assumed
[17] = test system: PSEUDOMONAS AERUGINOSA DPHD-2862; assay: as above; settings: P. aeruginosa DPHD-2862, unit assumed
PSEUDOMONAS CEPACIA 296I = assay: as above; settings: P. cepacia 296I, unit assumed
[18] = test system: STAPHYLOCOCCUS AUREUS NCTC10649M; assay: as above; settings: S. aureus NCTC10649M, unit assumed
ESCHERICHIA COLI JUHL = settings: E. coli JUHL; BHI agar; unit assumed
STR[…] 508 = assay: In vitro antibacterial activity, MIC, BHI agar dilution; settings: S. agalactiae CMX 508, unit assumed
Summary of the method: (§1)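 MIC was read visually as the lowest drug level with no growth, a slight haze or sparsely isolated colonies relative to a compound-free growth control. Organisms were spotted at 1:100 dilution (1:10 for slow-growing strains) onto Brain Heart Infusion agar containing serial compound dilutions and incubated 20 to 24 hours at 35-37° C.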

M[…] ATCC 4698 = assay: as above; settings: M. luteus ATCC 4698, unit assumed
Summary of the method: as §1

M[…] ATCC 9341 = assay: as above; settings: M. luteus ATCC 9341, unit assumed
Summary of the method: as §1

EN[…] ATCC 8043 = assay: as above; settings: E. faecium ATCC 8043, unit assumed
Summary of the method: as §1

[19] = test system: ENTEROBACTER AEROGENES ATCC 13048; assay: as above; settings: E. aerogenes ATCC 13048, unit assumed
[20] = test system: PSEUDOMONAS AERUGINOSA K799/61; assay: as above; settings: P. aeruginosa K799/61, unit assumed
CANDIDA ALBICANS CCH 442 = assay: as above; settings: C. albicans CCH 442, unit assumed
[21] = test system: PSEUDOMONAS AERUGINOSA DPHD-5263; assay: as above; settings: P. aeruginosa DPHD-5263, unit assumed
[22] = test system: PROVIDENCIA STUARTII CMX 640; settings: P. stuartii CMX 640; BHI agar; unit assumed

Row | SMILES | MIC [1] [µg/mL] | MIC [2] [µg/mL] | MIC [3] [µg/mL] | MIC [4] [µg/mL] | MIC [5] [µg/mL] | MIC [6] [µg/mL] | MIC (ESCHERICHIA COLI H560) [µg/mL] | MIC [7] [µg/mL] | MIC [8] [µg/mL] | MIC [9] [µg/mL] | MIC [10] [µg/mL] | MIC (ESCHERICHIA COLI DC-2) [µg/mL] | MIC [11] [µg/mL] | MIC [12] [µg/mL] | MIC [13] [µg/mL] | MIC (ESCHERICHIA COLI KNK 437) [µg/mL] | MIC [14] [µg/mL] | MIC [15] [µg/mL] | MIC (ESCHERICHIA COLI SS) [µg/mL] | MIC [16] [µg/mL] | other results
1 | CC[C@H]1OC(=O)[C@H](C)C(=O)[C@H](C)[C@@H](O[C@@H]2O[C@H](C)C[C@H](N(C)C)[C@H]2O)[C@](C)(OC)C[C@@H](C)C2=N[C@H](COCc3ccccc3F)CN3C(=O)O[C@@]1(C)[C@H]3[C@H]2C [Example 102] | 0.01 (≈ 0.0129 µM) | > 100 | > 100 | 0.2 (≈ 0.258 µM) | 0.1 (≈ 0.129 µM) | 0.2 (≈ 0.258 µM) | 50 (≈ 64.4 µM) | 0.01 (≈ 0.0129 µM) | > 100 | > 100 | > 100 | > 100 | 0.2 (≈ 0.258 µM) | > 100 | 0.2 (≈ 0.258 µM) | > 100 | 0.01 (≈ 0.0129 µM) | 0.1 (≈ 0.129 µM) | 0.39 (≈ 0.503 µM) | > 100 | MIC [17]: > 100 µg/mL; MIC (PSEUDOMONAS CEPACIA 296I): 50 µg/mL (≈ 64.4 µM); MIC [18]: 0.1 µg/mL (≈ 0.129 µM); MIC (ESCHERICHIA COLI JUHL): 100 µg/mL (≈ 129 µM); MIC (STR[…] 508): 0.01 µg/mL (≈ 0.0129 µM); MIC (M[…] ATCC 4698): 0.02 µg/mL (≈ 0.0258 µM); MIC (M[…] ATCC 9341): ≤ 5 ng/mL; MIC (EN[…] ATCC 8043): 0.01 µg/mL (≈ 0.0129 µM); MIC [19]: > 100 µg/mL; MIC [20]: 3.1 µg/mL (≈ 4 µM); MIC (CANDIDA ALBICANS CCH 442): > 100 µg/mL; MIC [21]: > 100 µg/mL; MIC [22]: > 100 µg/mL
2 | CC[C@H]1OC(=O)[C@H](C)C(=O)[C@H](C)[C@@H](O[C@@H]2O[C@H](C)C[C@H](N(C)C)[C@H]2O)[C@](C)(OC)C[C@@H](C)C2=N[C@H](COCc3ccc(Br)cc3)CN3C(=O)O[C@@]1(C)[C@H]3[C@H]2C [Example 103] | ≤ 0.005 | 25 (≈ 29.9 µM) | 100 (≈ 119 µM) | 0.05 (≈ 0.0597 µM) | 0.05 (≈ 0.0597 µM) | 0.05 (≈ 0.0597 µM) | 100 (≈ 119 µM) | ≤ 0.005 | > 100 | > 100 | > 100 | 100 (≈ 119 µM) | 0.05 (≈ 0.0597 µM) | > 100 | 0.05 (≈ 0.0597 µM) | > 100 | 0.2 (≈ 0.239 µM) | 0.05 (≈ 0.0597 µM) | 0.39 (≈ 0.466 µM) | 100 (≈ 119 µM) | MIC [17]: > 100 µg/mL; MIC (PSEUDOMONAS CEPACIA 296I): 50 µg/mL (≈ 59.7 µM); MIC [18]: 0.05 µg/mL (≈ 0.0597 µM); MIC (ESCHERICHIA COLI JUHL): 100 µg/mL (≈ 119 µM); MIC (STR[…] 508): ≤ 0.005 µg/mL; MIC (M[…] ATCC 4698): ≤ 0.005 µg/mL; MIC (M[…] ATCC 9341): ≤ 5 ng/mL; MIC (EN[…] ATCC 8043): ≤ 0.005 µg/mL; MIC [19]: > 100 µg/mL; MIC [20]: 0.78 µg/mL (≈ 0.932 µM); MIC (CANDIDA ALBICANS CCH 442): 50 µg/mL (≈ 59.7 µM); MIC [21]: > 100 µg/mL; MIC [22]: > 100 µg/mL
